From patent US12486300B2, “Mithramycin oxime derivatives having increased selectivity and anti-cancer activity” (University of Kentucky Research Foundation, priority 2018, dated 2025)

tested on: TC32 Ewing sarcoma cells, expressing EWS-FLI1; test: Growth inhibition assay, TC32 cells; format: cell-based; conditions: ratio of GI50 PC3 to TC32
Experimental: Growth inhibition assay to assess cytotoxicity in ETS vs non-ETS expressing cells. Cells were seeded in clear 96-well plates (VWR, Radnor, PA). Seeding densities were optimized for each cell line to support 5 days of linear growth. Following a 24 hours attachment period, cells in duplicate wells were treated with half-log increments of respective compounds (0 nM and 0.3 nM-10 μM). Working stocks were prepared from an initial 10 mM drug stock diluted in either 100% ethanol or dimethyl sulfoxide (DMSO). All wells contained a final concentration of 0.1% (v/v) respective organic solvent. Immediately following treatment, cell viability was measured for vehicle control (Day 0) wells. Cell viability was measured in the remaining wells after 72 hours of incubation with compound or vehicle control (Day 3).
Percent viability, relative to the initial cell seeding concentration, was calculated by ((TreatmentDay3−Vehicle ControlDay0)/(Vehicle ControlDay3−Vehicle ControlDay0))×100. Percent cell viability was plotted as a function of compound concentration (Log [M]) and the data were fit using a 3-parameter non-linear model with fixed Hill slope constant and 4-parameter non-linear model with variable Hill slope constant. The model with the best curve fit was used to estimate the GI50 in GraphPad Prism 7.0 software (GraphPad Software, La Jolla, CA). The 3-parameter equation used was Y=Bottom+(Top−Bottom)/(1+10[…]((X−Log[IC50]))). The 4-parameter equation used was Y=Bottom+(Top−Bottom)/(1+10[…]((Log[IC50]−X)*Hillslope)). Top and Bottom are plateaus in the units of the Y-axis (response). IC50 is the response (Y-axis) halfway between Top and Bottom plateaus.
All compounds were tested at least once in multi-well replicates and each experiment included one a control compound (i.e., MTM) to ensure the stable response of the cell lines. The selectivity index was estimated by determining the ratio of GI50 estimates between ETS fusion negative and ETS fusion positive cell lines.

SMILES	PC:TC32 (cellular selectivity)
CON=C(C(O)C(C)O)C(OC)C1Cc2cc3cc(OC4CC(OC5CC(O)C(O)C(C)O5)C(O)C(C)O4)c(C)c(O)c3c(O)c2C(=O)C1OC1CC(OC2CC(OC3CC(C)(O)C(O)C(C)O3)C(O)C(C)O2)C(O)C(C)O1 (stereo not shown) [MTM (1)]	1.66
COC(C(=NOCc1ccccc1)C(O)C(C)O)C1Cc2cc3cc(OC4CC(OC5CC(O)C(O)C(C)O5)C(O)C(C)O4)c(C)c(O)c3c(O)c2C(=O)C1OC1CC(OC2CC(OC3CC(C)(O)C(O)C(C)O3)C(O)C(C)O2)C(O)C(C)O1 (stereo not shown) [MTM (2)]	1.08
COC(C(=NO)C(O)C(C)O)C1Cc2cc3cc(OC4CC(OC5CC(O)C(O)C(C)O5)C(O)C(C)O4)c(C)c(O)c3c(O)c2C(=O)C1OC1CC(OC2CC(OC3CC(C)(O)C(O)C(C)O3)C(O)C(C)O2)C(O)C(C)O1 (stereo not shown) [MTM (3)]	1.86
CCON=C(C(O)C(C)O)C(OC)C1Cc2cc3cc(OC4CC(OC5CC(O)C(O)C(C)O5)C(O)C(C)O4)c(C)c(O)c3c(O)c2C(=O)C1OC1CC(OC2CC(OC3CC(C)(O)C(O)C(C)O3)C(O)C(C)O2)C(O)C(C)O1 (stereo not shown) [MTM (4)]	1.15
COC(C(=NOC[Si](C)(C)C)C(O)C(C)O)C1Cc2cc3cc(OC4CC(OC5CC(O)C(O)C(C)O5)C(O)C(C)O4)c(C)c(O)c3c(O)c2C(=O)C1OC1CC(OC2CC(OC3CC(C)(O)C(O)C(C)O3)C(O)C(C)O2)C(O)C(C)O1 (stereo not shown) [MTM (5E)]	1.28
COC(C(=NOC[Si](C)(C)C)C(O)C(C)O)C1Cc2cc3cc(OC4CC(OC5CC(O)C(O)C(C)O5)C(O)C(C)O4)c(C)c(O)c3c(O)c2C(=O)C1OC1CC(OC2CC(OC3CC(C)(O)C(O)C(C)O3)C(O)C(C)O2)C(O)C(C)O1 (stereo not shown) [MTM (5Z)]	0.68
COC(C(=NOCC(C)C)C(O)C(C)O)C1Cc2cc3cc(OC4CC(OC5CC(O)C(O)C(C)O5)C(O)C(C)O4)c(C)c(O)c3c(O)c2C(=O)C1OC1CC(OC2CC(OC3CC(C)(O)C(O)C(C)O3)C(O)C(C)O2)C(O)C(C)O1 (stereo not shown) [MTM (7E)]	1.04
COC(C(=NOCC(C)C)C(O)C(C)O)C1Cc2cc3cc(OC4CC(OC5CC(O)C(O)C(C)O5)C(O)C(C)O4)c(C)c(O)c3c(O)c2C(=O)C1OC1CC(OC2CC(OC3CC(C)(O)C(O)C(C)O3)C(O)C(C)O2)C(O)C(C)O1 (stereo not shown) [MTM (7Z)]	1.15
C=CCON=C(C(O)C(C)O)C(OC)C1Cc2cc3cc(OC4CC(OC5CC(O)C(O)C(C)O5)C(O)C(C)O4)c(C)c(O)c3c(O)c2C(=O)C1OC1CC(OC2CC(OC3CC(C)(O)C(O)C(C)O3)C(O)C(C)O2)C(O)C(C)O1 (stereo not shown) [MTM (10)]	1.10
COC(C(=NOCc1ccc([N+](=O)[O-])cc1)C(O)C(C)O)C1Cc2cc3cc(OC4CC(OC5CC(O)C(O)C(C)O5)C(O)C(C)O4)c(C)c(O)c3c(O)c2C(=O)C1OC1CC(OC2CC(OC3CC(C)(O)C(O)C(C)O3)C(O)C(C)O2)C(O)C(C)O1 (stereo not shown) [MTM (11)]	1.30
COc1ccc(CON=C(C(O)C(C)O)C(OC)C2Cc3cc4cc(OC5CC(OC6CC(O)C(O)C(C)O6)C(O)C(C)O5)c(C)c(O)c4c(O)c3C(=O)C2OC2CC(OC3CC(OC4CC(C)(O)C(O)C(C)O4)C(O)C(C)O3)C(O)C(C)O2)cc1 (stereo not shown) [MTM (14E)]	2.05
COc1ccc(CON=C(C(O)C(C)O)C(OC)C2Cc3cc4cc(OC5CC(OC6CC(O)C(O)C(C)O6)C(O)C(C)O5)c(C)c(O)c4c(O)c3C(=O)C2OC2CC(OC3CC(OC4CC(C)(O)C(O)C(C)O4)C(O)C(C)O3)C(O)C(C)O2)cc1 (stereo not shown) [MTM (14Z)]	2.91
COC(C(=NOC(C)(C)C)C(O)C(C)O)C1Cc2cc3cc(OC4CC(OC5CC(O)C(O)C(C)O5)C(O)C(C)O4)c(C)c(O)c3c(O)c2C(=O)C1OC1CC(OC2CC(OC3CC(C)(O)C(O)C(C)O3)C(O)C(C)O2)C(O)C(C)O1 (stereo not shown) [MTM (15E)]	1.87
